Assay [1] has as its system A2780. The experiment in a line: MTS Assay, cell proliferation analysis (A2780). The following applies: Homo sapiens; A2780 cells; 72 hours; 10 Percent FBS. The format is cell-based. On the procedure: (§1) Cell proliferation analysis. Cell survival was determined by the MTS assay. Briefly, cells were plated in a 96-well plate at 2,000-10,000 cells per well, cultured for 24 hours in complete growth medium, and then treated with representative compounds of the invention or combinations thereof for 72 hours. MTS was added and incubated for 4 hours, followed by assessment of cell viability by using the microplate reader at 570 nm. Data were normalized to untreated controls and analyzed.

Assay [2] relates to AN3-CA. The experiment in a line: MTS Assay, cell proliferation analysis (AN3-CA). The format is cell-based. Conditions: Homo sapiens; AN3-CA cells; 72 hours; 10 Percent FBS. On the procedure:
as §1

Assay [3] has as its system IGROV-1. In words: MTS Assay, cell proliferation analysis (IGROV-1). The format is cell-based. The following applies: Homo sapiens; IGROV-1 cells; 72 hours; 10 Percent FBS. On the procedure: as §1
Assay [4] addresses AKT1 (Homo sapiens (Human), UniProt P31749). In words: Inactive Akt Alpha Screen Assay. The following applies: non *labeled: Akt Alpha Screen assay; read-out: AKT1 biochemical assay, IC50. A digest of the protocol: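 AKT1 activated in situ by PDK1, MAPKAPK2, lipid vesicles and ATP, then phosphorylating biotinylated crosstide for 30 min at room temperature. Stopped with 10 mM EDTA; phosphopeptide detected by AlphaScreen using phospho-AKT substrate antibody (1:350), Protein A acceptor and streptavidin donor beads, 90 min dark, ex 640/em 570 nm.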

Counter-ions that a name gives are not always drawn.

Usually IC50 stands for the concentration that inhibits the measured activity by half.

Chain of AKT1 (P31749 whole entry): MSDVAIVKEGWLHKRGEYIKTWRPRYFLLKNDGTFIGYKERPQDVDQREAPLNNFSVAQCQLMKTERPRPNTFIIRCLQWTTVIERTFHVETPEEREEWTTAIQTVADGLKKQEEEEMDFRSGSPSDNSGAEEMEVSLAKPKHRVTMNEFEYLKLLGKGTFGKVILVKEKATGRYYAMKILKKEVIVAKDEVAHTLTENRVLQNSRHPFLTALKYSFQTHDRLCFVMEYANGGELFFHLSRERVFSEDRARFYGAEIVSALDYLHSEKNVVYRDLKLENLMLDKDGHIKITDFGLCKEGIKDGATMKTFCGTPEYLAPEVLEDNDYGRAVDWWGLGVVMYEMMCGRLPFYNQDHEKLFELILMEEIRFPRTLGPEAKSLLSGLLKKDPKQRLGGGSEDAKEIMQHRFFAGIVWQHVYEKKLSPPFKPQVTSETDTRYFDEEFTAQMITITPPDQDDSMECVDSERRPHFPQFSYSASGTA

Regarding `CN(C)c1ccc(C(=O)NCc2ccc(-c3nnc4n3-c3cccnc3Nc3ccccc3-4)cc2)cc1` [Example 98, N-(4-(9H-benzo[f]pyrido[2,3-b][1,2,4]triazolo[4,3-d][1,4]diazepin-3-yl)benzyl)-4-(dimethylamino)benzamide], the IC50 is 6 µM in assay [1], 8 µM in assay [2], more than 100 µM in assay [3] and 0.11 µM in assay [4].
In the same order, the values of `NC1(c2ccc(-c3nnc4n3-c3cccnc3Nc3ccccc3-4)cc2)CCC1` [Example 126, 1-(4-(9H-benzo[f]pyrido[2,3-b][1,2,4]triazolo[4,3-d][1,4]diazepin-3-yl)phenyl)cyclobutanamine] are 31 µM, 40 µM, 6 µM and 0.099 µM.
As to `ClCc1ccc(-c2nnc3n2-c2cccnc2Nc2ccccc2-3)cc1` [Example 127, 3-(4-(chloromethyl)phenyl)-9H-benzo[f]pyrido[2,3-b][1,2,4]triazolo[4,3-d][1,4]diazepine], the figures for the IC50 in assay [1], in assay [3] and in assay [4] were 9 µM, 13 µM and 1.9 µM, respectively.
On to `c1ccc(-c2nnc(C3CCN(Cc4ccc(-c5nnc6n5-c5cccnc5Nc5ccccc5-6)cc4)CC3)[nH]2)nc1` [Example 63, 3-(4-((4-(5-(pyridin-2-yl)-4H-1,2,4-triazol-3-yl)piperidin-1-yl)methyl)phenyl)-9H-benzo[f]pyrido[2,3-b][1,2,4]triazolo[4,3-d][1,4]diazepine], for which the IC50 in assay [1] is 17 µM; in assay [2] it was 34 µM; in assay [3], 10 µM; in assay [4], 0.084 µM.
For `O=c1[nH]c2ccccc2n1C1CCN(Cc2ccc(-c3nnc4n3-c3ccccc3Nc3ccccc3-4)cc2)CC1` [Example 128, 1-(1-(4-(9H-dibenzo[b,f][1,2,4]triazolo[4,3-d][1,4]diazepin-3-yl)benzyl)piperidin-4-yl)-1H-benzo[d]imidazol-2(3H)-one], the half-inhibitory concentration (IC50) in assay [1] is 11 µM; in assay [3], more than 100 µM; in assay [4], 0.94 µM.
Regarding `NC1(c2ccc(-c3nnc4n3-c3cccnc3Nc3ccc(Br)cc3-4)cc2)CCC1` [Example 219, 1-(4-(12-bromo-9H-benzo[f]pyrido[2,3-b][1,2,4]triazolo[4,3-d][1,4]diazepin-3-yl)phenyl)cyclobutanamine], the IC50 was 16 µM in assay [1], 45 µM in assay [2], 10 µM in assay [3] and 0.13 µM in assay [4].
In the same order, the values of `COc1cccc(C(=O)Nc2ccc(-c3nnc4n3-c3cccnc3Nc3ccccc3-4)cc2)c1` [Example 27, N-(4-(9H-benzo[f]pyrido[2,3-b][1,2,4]triazolo[4,3-d][1,4]diazepin-3-yl)phenyl)-3-methoxybenzamide] are 10 µM, 25 µM, 23 µM and 0.16 µM.
With `O=C(Nc1ccc(-c2nnc3n2-c2cccnc2Nc2ccccc2-3)cc1)c1ccc(F)cc1` [Example 56, N-(4-(9H-benzo[f]pyrido[2,3-b][1,2,4]triazolo[4,3-d][1,4]diazepin-3-yl)phenyl)-4-fluorobenzamide], the IC50 was determined as 14 µM in assay [1], 28 µM in assay [2], 70 µM in assay [3] and 0.11 µM in assay [4].
Consider `O=C(NCCc1ccc(-c2nnc3n2-c2cccnc2Nc2ccccc2-3)cc1)Nc1ccccc1` [Example 110, 1-(4-(9H-benzo[f]pyrido[2,3-b][1,2,4]triazolo[4,3-d][1,4]diazepin-3-yl)phenethyl)-3-phenylurea], for which the IC50 in assay [1] amounted to 6 µM; in assay [2], 8 µM; in assay [4] it was 0.12 µM.
Take `c1ccc2c(c1)Nc1ncccc1-n1c(-c3ccc(CN4CCC(c5c[nH]c6ccccc56)CC4)cc3)nnc1-2` [Example 187, 3-(4-((4-(1H-indol-3-yl)piperidin-1-yl)methyl)phenyl)-9H-benzo[f]pyrido[2,3-b][1,2,4]triazolo[4,3-d][1,4]diazepine]: the figures for the IC50 in assay [1], in assay [2] and in assay [4] were 6 µM, 8 µM and 0.5 µM, respectively.
In the same order, the values of `O=C(NCc1ccc(-c2nnc3n2-c2cccnc2Nc2ccccc2-3)cc1)Nc1ccccc1F` [Example 121, 1-(4-(9H-benzo[f]pyrido[2,3-b][1,2,4]triazolo[4,3-d][1,4]diazepin-3-yl)benzyl)-3-(2-fluorophenyl)urea] are 16 µM, 27 µM and 0.31 µM.
For the compound `CN(C)c1ccc(-c2nnc3n2-c2cccnc2Nc2ccccc2-3)cc1` [hydrochloride], the IC50 worked out at 17 µM in assay [1], 90 µM in assay [3] and 1.6 µM in assay [4].
With `Brc1ccc2c(c1)-c1nnc(-c3ccc(CN4CCC(c5nnc(-c6ccccn6)[nH]5)CC4)cc3)n1-c1cccnc1N2` [Example 228, 12-bromo-3-(4-((4-(5-(pyridin-2-yl)-4H-1,2,4-triazol-3-yl)piperidin-1-yl)methyl)phenyl)-9H-benzo[f]pyrido[2,3-b][1,2,4]triazolo[4,3-d][1,4]diazepine], the IC50 stood at 13 µM in assay [1], 56 µM in assay [2], 6 µM in assay [3] and 0.096 µM in assay [4].
As for `Fc1ccc2c(CCNCc3ccc(-c4nnc5n4-c4cccnc4Nc4ccccc4-5)cc3)c[nH]c2c1` [Example 202, N-(4-(9H-benzo[f]pyrido[2,3-b][1,2,4]triazolo[4,3-d][1,4]diazepin-3-yl)benzyl)-2-(6-fluoro-1H-indol-3-yl)ethanamine], the results for the IC50 in assay [1], in assay [2] and in assay [4] were 4 µM, 15 µM and 0.21 µM, respectively.
`Cc1ccc(C(=O)Nc2ccc(-c3nnc4n3-c3cccnc3Nc3ccccc3-4)cc2)cc1` [Example 30, N-(4-(9H-benzo[f]pyrido[2,3-b][1,2,4]triazolo[4,3-d][1,4]diazepin-3-yl)phenyl)-4-methylbenzamide]: the IC50 in assay [1] worked out at 6 µM; in assay [2], 7 µM; in assay [3], 28 µM; in assay [4], 0.1 µM.
For `c1ccc(-n2cc(COCc3ccc(-c4nnc5n4-c4cccnc4Nc4ccccc4-5)cc3)nn2)cc1` [Example 186, 3-(4-(((1-phenyl-1H-1,2,3-triazol-4-yl)methoxy)methyl)phenyl)-9H-benzo[f]pyrido[2,3-b][1,2,4]triazolo[4,3-d][1,4]diazepine], the IC50 in assay [1] was determined as 3 µM; in assay [2] it was 4 µM; in assay [4] it was 0.49 µM.
In the same order, the values of `Cc1cccc(S(=O)(=O)NCc2ccc(-c3nnc4n3-c3cccnc3Nc3ccccc3-4)cc2)c1` [Example 115, N-(4-(9H-benzo[f]pyrido[2,3-b][1,2,4]triazolo[4,3-d][1,4]diazepin-3-yl)benzyl)-3-methylbenzenesulfonamide] are 16 µM, 28 µM and 0.11 µM.
In the same order, the values of `COc1cccc(S(=O)(=O)NCc2ccc(-c3nnc4n3-c3cccnc3Nc3ccccc3-4)cc2)c1` [Example 114, N-(4-(9H-benzo[f]pyrido[2,3-b][1,2,4]triazolo[4,3-d][1,4]diazepin-3-yl)benzyl)-3-methoxybenzenesulfonamide] are 16 µM, 25 µM and 0.14 µM.
Take `O=S(=O)(NCc1ccc(-c2nnc3n2-c2cccnc2Nc2ccccc2-3)cc1)c1cccc(Cl)c1` [Example 116, N-(4-(9H-benzo[f]pyrido[2,3-b][1,2,4]triazolo[4,3-d][1,4]diazepin-3-yl)benzyl)-3-chlorobenzenesulfonamide]: the IC50 in assay [1] amounted to 21 µM; in assay [2] it was 23 µM; in assay [4] it was 0.15 µM.
In the same order, the values of `COc1cccc(NC(=O)NCc2ccc(-c3nnc4n3-c3cccnc3Nc3ccccc3-4)cc2)c1` [Example 123, 1-(4-(9H-benzo[f]pyrido[2,3-b][1,2,4]triazolo[4,3-d][1,4]diazepin-3-yl)benzyl)-3-(3-methoxyphenyl)urea] are 27 µM, 48 µM and 0.13 µM.

The values are drawn from patent US8541407B2 (ArQule, Inc., priority 2010, dated 2013).
